The test system of this experiment is layer II-III pyramidal neurons. In words: Whole cell recordings, layer II-III prelimbic cortex neurons, WT mice. Format: cell-based, mouse. The following applies: 1 mM. As for the experimental part: FIGS. 14A-14H. Effect of glycine on neuronal excitability. A) Schematic of the electrophysiological recordings in slice preparation targeting mPFC neurons of layer II-III. Experiments were conducted with a cocktail of synaptic blockers: picrotoxin (100 μM) (blockade of GABAA receptor chloride channels), strychnine (1 μM) (antagonist of glycine and acetylcholine ionotropic receptors), CNQX (20 μM) (AMPA receptors antagonist), and APV (50 μM) (NMDAR antagonist). B) Representative traces of voltage responses to a 200 pA current ramp injection under control conditions and after bath application of glycine (1 mM) in WT mice. C) Quantification of changes in excitability by number of action potentials fired in response to 200 pA current ramp (n=8 neurons from 5 mice). Nonparametric t-test; Wilcoxon test, **p<0.01. D) Quantification of changes in excitability by rheobase current under control condition and glycine application (n=8 neurons from 5 mice). Nonparametric t-test; Wilcoxon test, **p<0.01. E) Representative traces of voltage responses to a 200 pA current ramp injection obtained from layer II-III pyramidal neurons in GPR158 KO mice under control conditions and during bath application of glycine (1 mM). F) Quantification of changes in excitability by number of action potentials fired in response to 200 pA current ramp (n=4 neurons/3 mice). Nonparametric t-test; Wilcoxon test, ns=p>0.05. G) Quantification of changes in excitability by rheobase current under control condition and glycine application (n=4 neurons/3 mice). Nonparametric t-test; Wilcoxon test, ns=p>0.05. H) Schematic representation of the proposed mechanism of glycine effects on mGlyR. In 14C, 14D, 14F, and 14G, solid circles (Ctrl), circles with no fill (Glycine), columns with no fill (Ctrl), and columns with dotted fill (Glycine).
FIGS. 15A-15H. Effect of glycine and taurine on excitability of layer V neurons and membrane properties of layer II/III neurons in wild type and GPR158 knockout mice. A) Representative traces of voltage responses to a 200 pA current ramp injection obtained from layer V pyramidal neurons in WT mice under control conditions and during bath application of glycine (1 mM). B) Quantification of glycine effects on neuronal excitability by number of action potentials fired in response to 200 pA current ramp under control condition and glycine application (n=4 neurons/3 mice). Nonparametric t-test; Wilcoxon test, ns=p>0.05. C) Quantification of glycine effects on neuronal excitability by rheobase current under control condition and glycine application (n=4 neurons/3 mice). Nonparametric t-test; Wilcoxon test, ns=p>0.05. D) Resting membrane potential of layer V pyramidal neurons in WT mice under control conditions and during bath application of glycine (n=4 neurons/3 mice). […]

The mark [1] stands for this setting: 200 pA current ramp, synaptic blockers.

Regarding `NCCS(=O)(=O)O` [taurine, 2-aminoethanesulfonic acid], the rheobase current entry under setting [1] was “ns”.

For the compound `NCC(=O)O` [glycine], the resting membrane potential entry was “without changes in the resting membrane potential”. Under setting [1], the “number of action potentials fired” value is recorded as “significantly increased the number of action potentials” and the rheobase current entry is recorded as “decreasing the amount of current necessary to elicit the first action potential”.

(Values after US20260376293A1, “METHODS FOR STUDYING GPR158 PHARMACOLOGY AND IDENTIFICATION OF ITS LIGANDS” (UNIVERSITY OF FLORIDA RESEARCH FOUNDATION, INCORPORATED, priority 2022, published 2026).)
